Counter-ions that a name gives are not always drawn.
target: human dopamine D3 receptor (hD3) (Homo sapiens, UniProt P35462); assay: Binding of [3H]spiperone to membranes of CHO cells transfected with the human dopamine D3 receptor; conditions: binding of [3H]spiperone (0.5 to 2 nM), hD3-transfected CHO cell membranes, 60 minutes at ambient temperature; read-out: hD3 Ki
Method: Biological Results: Determination of the Affinity of the Compounds for the Human Dopamine D3 Receptor
Binding of [^3H]spiperone:
CHO cells were transfected by the gene coding for the human dopamine D3 receptor (hD3). The binding of [^3H]spiperone (0.5 to 2 nM) takes place in the presence of 5 to 10 μg of membranous proteins in a medium containing 120 mM NaCl, 5 mM KCl, and 50 mM Tris HCL pH 7.4; an incubation of 60 minutes at ambient temperature is necessary. The non-specific binding is estimated in the presence of 5 μM of haloperidol. The non-transfected cells are devoid of any binding activity.

Chain of human dopamine D3 receptor (hD3) (P35462 whole entry): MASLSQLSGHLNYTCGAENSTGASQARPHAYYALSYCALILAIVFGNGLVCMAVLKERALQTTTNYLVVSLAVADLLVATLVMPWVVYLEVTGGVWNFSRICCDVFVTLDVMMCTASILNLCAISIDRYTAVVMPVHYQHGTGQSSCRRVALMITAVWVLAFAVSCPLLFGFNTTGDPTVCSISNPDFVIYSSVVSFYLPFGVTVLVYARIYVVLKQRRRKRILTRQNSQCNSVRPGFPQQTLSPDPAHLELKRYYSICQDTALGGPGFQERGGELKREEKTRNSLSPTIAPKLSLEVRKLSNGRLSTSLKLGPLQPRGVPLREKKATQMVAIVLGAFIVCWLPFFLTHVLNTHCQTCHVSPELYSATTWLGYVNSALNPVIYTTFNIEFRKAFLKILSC

Point of comparison: `O=C(CCCCCN1CCN(c2cccc3c2CCCC3)CC1)N1Cc2ccccc2C1` [Example 38, 1-isoindolin-2-yl-6-[4-(5,6,7,8-tetrahydro-naphthalen-1-yl)piperazin-1-yl]hexan-1-one], Ki 0.84 nM. Against it:
- COc1ccc2c(c1)CN(C(=O)CCCCCN1CCN(c3cccc(C(F)(F)F)c3)CC1)C2 [Example 1, 1-(5-methoxyisoindolin-2-yl)-6-[4-(3-trifluoromethylphenyl)piperazin-1-yl]hexan-1-one] — within 1.5-fold, 0.9 nM
- O=C(CCCCCN1CCN(c2cccc(C(F)(F)F)c2)CC1)N1Cc2ccc(OCCCN3CCCCC3)cc2C1 [Example 24, 1-[5-(3-piperidinopropoxy)isoindolin-2-yl]-6-[4-(3-trifluoromethylphenyl)piperazin-1-yl]hexan-1-one] — within 1.5-fold, 1.21 nM
- O=C(CCCCCN1CCN(c2cccc(C(F)(F)F)c2)CC1)N1Cc2cc3c(cc2C1)OCO3 [Example 10, 1-(6,7-dihydro-5H-[1,3]dioxolo[4,5-f]isoindol-6-yl)-6-[4-(3-trifluoromethylphenyl)piperazin-1-yl]hexan-1-one] — within 1.5-fold, 1.17 nM
- O=C(CCCCCN1CC=C(c2cccc(C(F)(F)F)c2)CC1)N1Cc2ccccc2C1 [Example 50, 1-isoindolin-2-yl-6-[4-(3-trifluoromethylphenyl)-3,6-dihydro-2H-pyridin-1-yl]hexan-1-one] — within 1.5-fold, 0.93 nM
- COC(=O)c1ccc2c(c1)CN(C(=O)CCCCCN1CCN(c3cccc(C(F)(F)F)c3)CC1)C2 [Example 12, 1-(5-methoxycarbonylisoindolin-2-yl)-6-[4-(3-trifluoromethylphenyl)piperazin-1-yl]hexan-1-one hydrochloride] — within 1.5-fold, 0.85 nM
- O=C(CCCCCN1CCN(c2cccc(C(F)(F)F)c2)CC1)N1Cc2ccc(F)cc2C1 [Example 7, 1-(5-fluoroisoindolin-2-yl)-6-[4-(3-trifluoromethylphenyl)piperazin-1-yl]hexan-1-one] — within 1.5-fold, 1.05 nM
- O=C(CCCCCN1CCC(c2cccc(C(F)(F)F)c2)CC1)N1Cc2ccccc2C1 [Example 51, 1-isoindolin-2-yl-6-[4-(3-trifluoromethyl-phenyl)-piperidin-1-yl]hexan-1-one] — 23-fold higher, 19.7 nM
- N#Cc1ccc2c(c1)CN(C(=O)CCCCCN1CCN(c3cccc(C(F)(F)F)c3)CC1)C2 [Example 3, 1-(5-cyanoisoindolin-2-yl)-6-[4-(3-trifluoromethylphenyl)piperazin-1-yl]-hexan-1-one hydrochloride] — 3.1-fold higher, 2.6 nM

same assay, conditions: comparative example, affinity for the dopamine D3 receptor; read-out: Ki

With `O=C(CCCCCN1CCN(c2cccc(F)c2)CC1)N1Cc2ccccc2C1` [reference compound] the Ki was 321 nM.
